The results in this text go back to patent publication US9981907B2, “Low molecular weight cationic lipids for oligonucleotide delivery” (SIRNA THERAPEUTICS, INC., priority 2010, dated 2018).

Data set [1] concerns mRNA transcript for the firefly (Photinus pyralis) luciferase gene. The experiment in a line: Mouse in vivo evaluation of efficacy (luciferase siRNA LNP/RDV, liver luminescence). Conditions: LSL-Luc transgenic mice, RDV with Luc siRNA tail vein injected, 0.1 to 0.5 mg/kg siRNA, imaged 48 hours post dose; compared with RDV containing octyl-CLinDMA (OCD); FIG. 1. The method, then:
LNPs utilizing Compound 1, in the nominal compositions described immediately above, were evaluated for in vivo efficacy. The siRNA targets the mRNA transcript for the firefly (Photinus pyralis) luciferase gene (Accession #M15077). […] The in vivo luciferase model employs a transgenic mouse in which the firefly luciferase coding sequence is present in all cells. ROSA26-LoxP-Stop-LoxP-Luc (LSL-Luc) transgenic mice licensed from the Dana Farber Cancer Institute are induced to express the Luciferase gene by first removing the LSL sequence with a recombinant Ad-Cre virus (Vector Biolabs). Due to the organo-tropic nature of the virus, expression is limited to the liver when delivered via tail vein injection. Luciferase expression levels in liver are quantitated by measuring light output, using an IVIS imager (Xenogen) following administration of the luciferin substrate (Caliper Life Sciences). Pre-dose luminescence levels are measured prior to administration of the RDVs. Luciferin in PBS (15 mg/mL) is intraperitoneally (IP) injected in a volume of 150 μL. After a four minute incubation period mice are anesthetized with isoflurane and placed in the IVIS imager. The RDVs (containing siRNA) in PBS vehicle were tail vein injected n a volume of 0.2 mL. […] In vivo efficacy results are expressed as % inhibition of luminescence relative to pre-dose luminescence levels. […]

Data set [2] can be described thus: Determination of cationic lipid levels in rat liver (LC/MS-MS). In kind it is in vivo. Particulars: rats dosed with RDV; compared with RDV containing DLinKC2DMA (Compound 4) or MC3 (Compound 3); FIG. 3. The procedure:
Liver tissue was weighed into 20-ml vials and homogenized in 9 v/w of water using a GenoGrinder 2000 (OPS Diagnostics, 1600 strokes/min, 5 min). A 50 μL aliquot of each tissue homogenate was mixed with 300 μL of extraction/protein precipitating solvent (50/50 acetonitrile/methanol containing 500 nM internal standard) and the plate was centrifuged to sediment precipitated protein. A volume of 200 μL of each supernatant was then transferred to separate wells of a 96-well plate and 10 μl samples were directly analyzed by LC/MS-MS.
Standards were prepared by spiking known amounts of a methanol stock solution of compound into untreated rat liver homogenate (9 vol water/weight liver). Aliquots (50 μL) each standard/liver homogenate was mixed with 300 μL of extraction/protein precipitating solvent (50/50 acetonitrile/methanol containing 500 nM internal standard) and the plate was centrifuged to sediment precipitated protein. A volume of 200 μL of each supernatant was transferred to separate wells of a 96-well plate and 10 μl of each standard was directly analyzed by LC/MS-MS.
Absolute quantification versus standards prepared and extracted from liver homogenate was performed using an Aria LX-2 HPLC system (Thermo Scientific) coupled to an API 4000 triple quadrupole mass spectrometer (Applied Biosystems). […]

The nature of data set [3]: Rat in vivo toxicity (survival after LNP dosing). Particulars: for Rats that failed to survive 48 hours: rats treated with 3 mg/kg. The method, then: Six hours post dose, food is removed from the cages. Animal necropsy is performed 24 hours after LNP dosing. Rats are anesthetized under isoflurane for 5 minutes, then maintained under anesthesia by placing them in nose cones continuing the delivery of isoflurane until ex-sanguination is completed. Blood is collected from the vena cava using a 23 gauge butterfly venipuncture set and aliquoted to serum separator vacutainers for serum chemistry analysis. Punches of the excised caudate liver lobe are taken and placed in RNALater (Ambion) for mRNA analysis. Preserved liver tissue was homogenized and total RNA isolated using a Qiagen bead mill and the Qiagen miRNA-Easy RNA isolation kit following the manufacturer's instructions. Liver ApoB mRNA levels were determined by quantitative RT-PCR. Message was amplified from purified RNA utilizing a rat ApoB commercial probe set (Applied Biosystems Cat #RN01499054_m1). The PCR reaction was performed on an ABI 7500 instrument with a 96-well Fast Block. The ApoB mRNA level is normalized to the housekeeping PPIB (NM 011149) mRNA. PPIB mRNA levels were determined by RT-PCR using a commercial probe set (Applied Biosystems Cat. No. Mm00478295_m1). Results are expressed as a ratio of ApoB mRNA/PPIB mRNA. All mRNA data is expressed relative to the PBS control dose. Serum ALT and AST analysis were performed on the Siemens Advia 1800 Clinical Chemistry Analyzer utilizing the Siemens alanine aminotransferase (Cat #03039631) and aspartate aminotransferase (Cat #03039631) reagents. […] 3 out of 4 rats treated with 6 mg/kg Compound 2 survived at 48 hours post dose.

Take `CCCCC/C=C\C/C=C\CCCCCCCCCC(CCCCCCCCC)OC(=O)CCCN(C)C` (centres unmarked) [Compound 1, (20Z,23Z)-nonacosa-20,23-dien-10-yl 4-(dimethylamino)butanoate]: in data set [1], the “In vivo efficacy, % inhibition of luminescence relative to pre-dose luminescence levels” value is listed as “Greater efficacy”.

Consider `CCCCCCCC/C=C\CCCCCCCC(CCCCCCCCC)OC(=O)CCCN(C)C` (centres unmarked) [Compound 2, (18Z)-heptacos-18-en-10-yl 4-(dimethylamino)butanoate], for which the “Cationic lipid liver levels” value in data set [2] is reported as “lower”. In data set [3] (female, Sprague-Dawley (Crl:CD(SD)), rat, in vivo, 6 mg/kg, 48 h), the “Rats survived at 48 hours post dose” value was 3 out of 4.

Take `CCCCC/C=C\C/C=C\CCCCCCCCC(CCCCCCCC/C=C\C/C=C\CCCCC)OC(=O)CCCN(C)C` [Compound 3, MC3]: the “Rats that failed to survive 48 hours” value in data set [3] is 2 out of 4.

On to `CCCCC/C=C\C/C=C\CCCCCCCCC1(CCCCCCCC/C=C\C/C=C\CCCCC)OCC(CCN(C)C)O1` (centres unmarked) [Compound 4, DLinKC2DMA], for which, in data set [3], the “Rats that failed to survive 48 hours” value was 3 out of 4.
